The source made the active and inactive calls. The rule behind the calls is not given here.
Legend:
Homo sapiens [1] = organism: Homo sapiens; assay: Selectivity index, ratio of IC50 for HDAC4 (unknown origin) to IC50 for HDAC 6 (unknown origin)
Homo sapiens [2] = organism: Homo sapiens; assay: Selectivity index, ratio of IC50 for HDAC9 (unknown origin) to IC50 for HDAC 1 (unknown origin)
A549 [3] = assay: Downregulation of HDAC3 expression in human A549 cells at 0.1 to 1 uM after 24 hrs by Western blot analysis; format: functional, cell-based; settings: dose 0.1-1 µM
Homo sapiens [4] = organism: Homo sapiens; assay: Selectivity index, ratio of IC50 for HDAC 8 (unknown origin) to IC50 for HDAC 3 (unknown origin)
Homo sapiens [5] = organism: Homo sapiens; assay: Selectivity index, ratio of IC50 for HDAC 3 (unknown origin) to IC50 for HDAC 1 (unknown origin)
Homo sapiens [6] = organism: Homo sapiens; assay: Selectivity index, ratio of IC50 for HDAC5 (unknown origin) to IC50 for HDAC 1 (unknown origin)
Histone deacetylase 5 = Histone deacetylase 5 (Homo sapiens, UniProt Q9UQL6); assay: Inhibition of HDAC5 (unknown origin) by colorimetric method
Sequence of Histone deacetylase 5 (Q9UQL6 whole entry): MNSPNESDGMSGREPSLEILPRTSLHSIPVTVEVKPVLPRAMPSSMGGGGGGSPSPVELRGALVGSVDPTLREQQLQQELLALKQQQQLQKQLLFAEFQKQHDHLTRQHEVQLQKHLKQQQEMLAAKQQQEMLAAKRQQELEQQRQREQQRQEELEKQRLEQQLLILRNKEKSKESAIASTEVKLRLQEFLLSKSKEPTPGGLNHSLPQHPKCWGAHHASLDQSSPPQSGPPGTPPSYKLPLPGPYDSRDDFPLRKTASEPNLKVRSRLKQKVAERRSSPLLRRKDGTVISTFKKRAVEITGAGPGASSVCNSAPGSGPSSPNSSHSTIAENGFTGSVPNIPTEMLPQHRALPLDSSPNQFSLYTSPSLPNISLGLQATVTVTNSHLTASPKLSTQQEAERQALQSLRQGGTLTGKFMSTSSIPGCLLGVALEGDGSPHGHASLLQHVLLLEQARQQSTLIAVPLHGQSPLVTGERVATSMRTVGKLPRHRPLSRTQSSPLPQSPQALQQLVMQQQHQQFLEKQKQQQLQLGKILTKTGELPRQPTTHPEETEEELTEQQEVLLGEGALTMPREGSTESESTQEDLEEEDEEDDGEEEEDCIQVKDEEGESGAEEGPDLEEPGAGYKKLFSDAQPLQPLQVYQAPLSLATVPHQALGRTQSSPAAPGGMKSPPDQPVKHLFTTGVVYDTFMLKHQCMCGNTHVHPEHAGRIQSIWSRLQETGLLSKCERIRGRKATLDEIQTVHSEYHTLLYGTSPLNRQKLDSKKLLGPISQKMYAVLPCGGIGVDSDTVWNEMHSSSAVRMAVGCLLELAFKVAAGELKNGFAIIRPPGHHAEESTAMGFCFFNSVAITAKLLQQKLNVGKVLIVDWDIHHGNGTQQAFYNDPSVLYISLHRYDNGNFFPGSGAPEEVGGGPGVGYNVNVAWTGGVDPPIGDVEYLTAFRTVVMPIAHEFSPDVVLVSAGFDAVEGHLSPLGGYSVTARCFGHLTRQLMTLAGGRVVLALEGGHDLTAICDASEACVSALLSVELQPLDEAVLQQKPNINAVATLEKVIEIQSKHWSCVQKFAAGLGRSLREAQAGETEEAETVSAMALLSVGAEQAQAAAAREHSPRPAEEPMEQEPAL

Homo sapiens [7] = organism: Homo sapiens; assay: Selectivity index, ratio of IC50 for HDAC 2 (unknown origin) to IC50 for HDAC 3 (unknown origin)
Histone deacetylase 1 = Histone deacetylase 1 (Homo sapiens, UniProt Q13547); assay: Inhibition of HDAC1 (unknown origin) by colorimetric method
Sequence of Histone deacetylase 1 (Q13547 whole entry): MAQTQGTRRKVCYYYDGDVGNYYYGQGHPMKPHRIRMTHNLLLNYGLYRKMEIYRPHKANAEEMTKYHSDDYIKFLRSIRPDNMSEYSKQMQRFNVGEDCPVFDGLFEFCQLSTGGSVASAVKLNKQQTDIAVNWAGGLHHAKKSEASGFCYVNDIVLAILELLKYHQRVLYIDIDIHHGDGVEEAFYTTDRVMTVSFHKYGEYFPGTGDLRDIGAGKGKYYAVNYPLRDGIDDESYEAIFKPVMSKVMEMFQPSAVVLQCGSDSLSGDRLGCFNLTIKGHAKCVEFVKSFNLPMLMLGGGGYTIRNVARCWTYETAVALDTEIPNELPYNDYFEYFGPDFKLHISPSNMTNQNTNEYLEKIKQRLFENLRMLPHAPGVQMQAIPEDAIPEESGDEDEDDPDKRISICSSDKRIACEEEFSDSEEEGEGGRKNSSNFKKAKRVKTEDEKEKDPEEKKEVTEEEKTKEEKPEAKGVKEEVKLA

Homo sapiens [8] = organism: Homo sapiens; assay: Selectivity index, ratio of IC50 for HDAC8 (unknown origin) to IC50 for HDAC 1 (unknown origin)
A549 [9] = assay: Cytotoxicity against human A549 cells assessed as cell viability after 48 hrs by MTT assay; format: functional, cell-based; settings: A549, 48 h
Histone deacetylase 9 = Histone deacetylase 9 (Homo sapiens, UniProt Q9UKV0); assay: Inhibition of HDAC9 (unknown origin) by colorimetric method
Sequence of Histone deacetylase 9 (Q9UKV0 whole entry): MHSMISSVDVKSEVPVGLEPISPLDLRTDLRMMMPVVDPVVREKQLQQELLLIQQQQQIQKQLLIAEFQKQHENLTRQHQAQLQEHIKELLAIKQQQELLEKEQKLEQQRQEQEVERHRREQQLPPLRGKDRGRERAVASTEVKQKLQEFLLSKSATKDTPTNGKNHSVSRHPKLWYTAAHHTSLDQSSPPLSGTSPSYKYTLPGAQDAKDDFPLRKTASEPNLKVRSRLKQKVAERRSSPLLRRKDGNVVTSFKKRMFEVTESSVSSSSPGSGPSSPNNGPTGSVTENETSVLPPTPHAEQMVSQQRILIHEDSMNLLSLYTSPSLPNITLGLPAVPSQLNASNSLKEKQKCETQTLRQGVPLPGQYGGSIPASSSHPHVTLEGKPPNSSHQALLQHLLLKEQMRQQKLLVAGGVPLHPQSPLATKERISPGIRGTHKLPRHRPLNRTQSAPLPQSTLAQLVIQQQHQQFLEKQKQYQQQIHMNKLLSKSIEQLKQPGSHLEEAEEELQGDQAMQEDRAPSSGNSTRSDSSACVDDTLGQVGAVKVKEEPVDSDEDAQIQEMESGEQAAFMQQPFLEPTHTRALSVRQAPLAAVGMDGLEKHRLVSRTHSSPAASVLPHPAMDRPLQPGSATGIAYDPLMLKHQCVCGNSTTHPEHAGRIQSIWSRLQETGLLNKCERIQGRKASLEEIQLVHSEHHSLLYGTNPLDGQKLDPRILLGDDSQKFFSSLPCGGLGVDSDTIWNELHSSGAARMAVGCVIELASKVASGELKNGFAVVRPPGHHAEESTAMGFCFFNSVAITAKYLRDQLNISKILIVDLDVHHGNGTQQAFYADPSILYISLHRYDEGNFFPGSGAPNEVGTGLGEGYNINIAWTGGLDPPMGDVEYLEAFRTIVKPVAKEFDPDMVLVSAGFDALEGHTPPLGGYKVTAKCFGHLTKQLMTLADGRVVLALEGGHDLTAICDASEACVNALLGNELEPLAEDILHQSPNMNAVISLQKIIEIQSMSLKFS

A549 [10] = assay: Induction of cell cycle arrest in human A549 cells assessed as accumulation at SubG1 phase at IC50 after 48 hrs by flow cytometry; format: functional, cell-based
Homo sapiens [11] = organism: Homo sapiens; assay: Selectivity index, ratio of IC50 for HDAC3 (unknown origin) to IC50 for HDAC 6 (unknown origin)
Homo sapiens [12] = organism: Homo sapiens; assay: Selectivity index, ratio of IC50 for HDAC 2 (unknown origin) to IC50 for HDAC 1 (unknown origin)
A549 [13] = assay: Inhibition of HDAC1/HDAC3/HDAC6 in human A549 cells assessed as increase in alpha-tubulin-ack40 level by Western blot analysis; format: cell-based
Homo sapiens [14] = organism: Homo sapiens; assay: Selectivity index, ratio of IC50 for HDAC5 (unknown origin) to IC50 for HDAC 6 (unknown origin)
A549 [15] = assay: Inhibition of colony formation in human A549 cells measured after 24 hrs; format: functional, cell-based; settings: dose 0.1-1 µM, DDE = dose-dependent effect
Homo sapiens [16] = organism: Homo sapiens; assay: Selectivity index, ratio of IC50 for HDAC 2 (unknown origin) to IC50 for HDAC 6 (unknown origin)
Homo sapiens [17] = organism: Homo sapiens; assay: Selectivity index, ratio of IC50 for HDAC 4 (unknown origin) to IC50 for HDAC 1 (unknown origin)
A549 [18] = assay: Induction of autophagy in human A549 cells by acridine orange and propidium iodide staining based fluorescence microscopic analysis; format: functional, cell-based; settings: DDE = dose-dependent effect
Homo sapiens [19] = organism: Homo sapiens; assay: Selectivity index, ratio of IC50 for HDAC9 (unknown origin) to IC50 for HDAC 6 (unknown origin)
Homo sapiens [20] = organism: Homo sapiens; assay: Selectivity index, ratio of IC50 for HDAC6 (unknown origin) to IC50 for HDAC 1 (unknown origin)
Homo sapiens [21] = organism: Homo sapiens; assay: Selectivity index, ratio of IC50 for HDAC8 (unknown origin) to IC50 for HDAC 6 (unknown origin)
Histone deacetylase 7 = target: T1, Histone deacetylase 7 (Homo sapiens, UniProt Q8WUI4); assay: Inhibition of HDAC7 (unknown origin) by colorimetric method
T1 sequence (Q8WUI4 whole entry): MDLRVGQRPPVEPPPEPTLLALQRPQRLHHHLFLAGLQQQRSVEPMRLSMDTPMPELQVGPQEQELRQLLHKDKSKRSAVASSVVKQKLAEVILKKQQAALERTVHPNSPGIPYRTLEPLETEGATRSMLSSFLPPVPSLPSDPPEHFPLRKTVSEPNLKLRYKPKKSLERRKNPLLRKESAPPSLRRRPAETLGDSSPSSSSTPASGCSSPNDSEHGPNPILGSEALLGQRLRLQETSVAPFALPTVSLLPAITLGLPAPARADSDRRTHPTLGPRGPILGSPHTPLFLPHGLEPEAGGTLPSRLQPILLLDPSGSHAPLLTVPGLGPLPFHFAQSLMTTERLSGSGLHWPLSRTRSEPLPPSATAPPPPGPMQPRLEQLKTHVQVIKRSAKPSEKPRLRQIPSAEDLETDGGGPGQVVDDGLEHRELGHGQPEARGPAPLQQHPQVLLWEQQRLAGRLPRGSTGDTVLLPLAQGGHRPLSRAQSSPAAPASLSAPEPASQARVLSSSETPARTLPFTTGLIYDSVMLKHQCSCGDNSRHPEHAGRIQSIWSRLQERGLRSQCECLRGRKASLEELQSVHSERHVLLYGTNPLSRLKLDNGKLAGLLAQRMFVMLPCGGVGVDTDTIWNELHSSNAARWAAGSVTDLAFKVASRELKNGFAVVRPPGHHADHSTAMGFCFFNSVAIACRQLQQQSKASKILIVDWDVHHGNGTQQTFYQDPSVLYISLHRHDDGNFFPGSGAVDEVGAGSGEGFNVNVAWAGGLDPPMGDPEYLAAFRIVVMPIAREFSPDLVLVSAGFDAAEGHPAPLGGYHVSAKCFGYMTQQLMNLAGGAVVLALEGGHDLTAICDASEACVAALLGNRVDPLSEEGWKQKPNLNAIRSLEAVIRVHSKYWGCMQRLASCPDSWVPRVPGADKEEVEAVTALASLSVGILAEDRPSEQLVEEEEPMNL

Homo sapiens [22] = organism: Homo sapiens; assay: Selectivity index, ratio of IC50 for HDAC7 (unknown origin) to IC50 for HDAC 6 (unknown origin)
A549 [23] = assay: Induction of apoptosis in human A549 cells assessed as cell shrinkage at 0.1 to 1 uM after 24 hrs by fluorescence microscopic analysis; format: functional, cell-based; settings: dose 0.1-1 µM
Histone deacetylase 4 = Histone deacetylase 4 (Homo sapiens, UniProt P56524); assay: Inhibition of HDAC4 (unknown origin) by colorimetric method
Sequence of Histone deacetylase 4 (P56524 whole entry): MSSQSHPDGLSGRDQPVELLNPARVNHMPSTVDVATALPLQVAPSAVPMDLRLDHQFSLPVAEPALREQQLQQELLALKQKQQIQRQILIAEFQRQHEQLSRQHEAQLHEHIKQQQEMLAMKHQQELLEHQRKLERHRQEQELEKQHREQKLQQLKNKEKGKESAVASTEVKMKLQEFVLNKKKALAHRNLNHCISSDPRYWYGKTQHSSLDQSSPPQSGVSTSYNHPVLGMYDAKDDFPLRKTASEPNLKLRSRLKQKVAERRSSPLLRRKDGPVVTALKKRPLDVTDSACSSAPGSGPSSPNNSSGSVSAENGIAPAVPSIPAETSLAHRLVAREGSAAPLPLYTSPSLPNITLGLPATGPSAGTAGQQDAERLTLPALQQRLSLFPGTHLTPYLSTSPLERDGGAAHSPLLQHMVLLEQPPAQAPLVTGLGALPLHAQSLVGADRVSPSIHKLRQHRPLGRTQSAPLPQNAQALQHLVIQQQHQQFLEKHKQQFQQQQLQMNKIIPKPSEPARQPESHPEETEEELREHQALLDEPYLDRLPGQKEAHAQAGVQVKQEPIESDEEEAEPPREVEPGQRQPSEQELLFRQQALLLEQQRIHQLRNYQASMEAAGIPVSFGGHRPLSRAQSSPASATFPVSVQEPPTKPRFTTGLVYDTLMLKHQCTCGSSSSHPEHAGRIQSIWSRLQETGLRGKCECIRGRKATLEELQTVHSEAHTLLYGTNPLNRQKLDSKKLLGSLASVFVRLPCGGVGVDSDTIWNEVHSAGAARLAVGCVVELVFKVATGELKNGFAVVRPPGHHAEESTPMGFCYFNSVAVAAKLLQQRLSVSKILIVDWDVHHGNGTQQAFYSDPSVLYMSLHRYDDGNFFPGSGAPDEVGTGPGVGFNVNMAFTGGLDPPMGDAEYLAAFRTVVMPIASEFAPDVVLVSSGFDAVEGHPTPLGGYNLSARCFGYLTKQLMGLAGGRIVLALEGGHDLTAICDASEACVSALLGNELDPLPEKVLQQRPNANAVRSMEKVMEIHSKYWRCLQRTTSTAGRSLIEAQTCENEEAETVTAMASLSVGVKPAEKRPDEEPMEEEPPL

Homo sapiens [24] = organism: Homo sapiens; assay: Selectivity index, ratio of IC50 for HDAC6 (unknown origin) to IC50 for HDAC 3 (unknown origin)
A549 [25] = assay: Induction of apoptosis in human A549 cells assessed as […] deformation at 0.1 to 1 uM after 24 hrs by fluorescence microscopic analysis; format: functional, cell-based; settings: dose 0.1-1 µM
NCI-H727 = assay: Cytotoxicity against human NCI-H727 cells assessed as cell viability after 48 hrs by MTT assay; format: functional, cell-based; settings: NCI-H727, 48 h
A549 [26] = assay: Induction of cell cycle arrest in human A549 cells assessed as accumulation at G0/G1 phase at 0.5 times IC50 after 48 hrs by flow cytometry; format: functional, cell-based
A549 [27] = assay: Induction of apoptosis in human A549 cells assessed as nuclear condensation at 0.1 to 1 uM after 24 hrs by fluorescence microscopic analysis; format: functional, cell-based; settings: dose 0.1-1 µM

Ratio IC50 (Homo sapiens [1]): 126
Ratio IC50 (Homo sapiens [2]): 86.6
Ratio IC50 (Homo sapiens [4]): 2
Ratio IC50 (Homo sapiens [5]): 1.37
Ratio IC50 (Homo sapiens [6]): 12.4
IC50 (Histone deacetylase 5): 617 nM
Ratio IC50 (Homo sapiens [7]): 18.4
IC50 (Histone deacetylase 1): 49.9 nM
Ratio IC50 (Homo sapiens [8]): 3.56
IC50 (Histone deacetylase 9): 4320 nM
Ratio IC50 (Homo sapiens [11]): 5.31
Ratio IC50 (Homo sapiens [12]): 25.2
Ratio IC50 (Homo sapiens [14]): 47.8
Ratio IC50 (Homo sapiens [16]): 97.7
Ratio IC50 (Homo sapiens [17]): 32.7
Ratio IC50 (Homo sapiens [19]): 335
Ratio IC50 (Homo sapiens [20]): 0.25
Ratio IC50 (Homo sapiens [21]): 13.7
IC50 (Histone deacetylase 7): 4080 nM
Ratio IC50 (Homo sapiens [22]): 316
IC50 (Histone deacetylase 4): 1630 nM
Ratio IC50 (Homo sapiens [24]): 0.188
SMILES: O=C(/C=C/c1ccc(CNc2ccc3nc4n(c(=O)c3c2)CCCCC4)cc1)NO
inhibition (A549 [3]): Active
IC50 (A549 [9]): 855 nM
Activity (A549 [10]): Active
inhibition (A549 [13]): Active
inhibition (A549 [15]): Dde
Activity (A549 [18]): Dde
Activity (A549 [23]): Active
Activity (A549 [25]): Active
IC50 (NCI-H727): 960 nM
Activity (A549 [26]): Active
Activity (A549 [27]): Active

From ChEMBL document CHEMBL5113502, “Accommodation of ring C expanded deoxyvasicinone in the HDAC inhibitory pharmacophore culminates into a tractable anti-lung cancer agent and pH-responsive nanocarrier” (Eur J Med Chem, 2022)
